How the values were obtained:
Experiment in all cases: relative viability (nuclei count vs DMSO), 5 days (fraction); higher = more cells survive
Tozasertib + Decitabine = compound: Cc1cc(Nc2cc(N3CCN(C)CC3)nc(Sc3ccc(NC(=O)C4CC4)cc3)n2)n[nH]1 [Tozasertib] + Nc1ncn([C@H]2C[C@H](O)[C@@H](CO)O2)c(=O)n1 [Decitabine] (partner 2 µM)
Summary of the method: (§1)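 Relative viability is defined as nuclei in treated wells over nuclei in vehicle wells. Duplicate plates were run and medians reported. Lung cancer cell lines in 1536-well plates were dosed by pin tool one day after seeding, with one drug or with a fixed anchor-drug dose plus five library-drug doses (not always all listed) in √10 steps, and nuclei were counted after 5 days.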

Tozasertib + Navitoclax = compound: Cc1cc(Nc2cc(N3CCN(C)CC3)nc(Sc3ccc(NC(=O)C4CC4)cc3)n2)n[nH]1 [Tozasertib] + CC1(C)CCC(c2ccc(Cl)cc2)=C(CN2CCN(c3ccc(C(=O)NS(=O)(=O)c4ccc(N[C@H](CCN5CCOCC5)CSc5ccccc5)c(S(=O)(=O)C(F)(F)F)c4)cc3)CC2)C1 [Navitoclax] (partner 0.5 µM)
Summary of the method: as §1

Tozasertib + Olaparib = compound: Cc1cc(Nc2cc(N3CCN(C)CC3)nc(Sc3ccc(NC(=O)C4CC4)cc3)n2)n[nH]1 [Tozasertib] + O=C(c1cc(Cc2n[nH]c(=O)c3ccccc23)ccc1F)N1CCN(C(=O)C2CC2)CC1 [Olaparib] (partner 8 µM)
Summary of the method: as §1

Tozasertib + Crizotinib = compound: Cc1cc(Nc2cc(N3CCN(C)CC3)nc(Sc3ccc(NC(=O)C4CC4)cc3)n2)n[nH]1 [Tozasertib] + C[C@@H](Oc1cc(-c2cnn(C3CCNCC3)c2)cnc1N)c1c(Cl)ccc(F)c1Cl [Crizotinib] (partner 1 µM)
Summary of the method: as §1

Tozasertib + Luminespib = compound: Cc1cc(Nc2cc(N3CCN(C)CC3)nc(Sc3ccc(NC(=O)C4CC4)cc3)n2)n[nH]1 [Tozasertib] + CCNC(=O)c1noc(-c2cc(C(C)C)c(O)cc2O)c1-c1ccc(CN2CCOCC2)cc1 [Luminespib] (partner 0.01 µM)
Summary of the method: as §1

| Cell Line | relative viability (Tozasertib + Decitabine; first compound 0.004 µM) | relative viability (Tozasertib + Decitabine; first compound 0.01265 µM) | relative viability (Tozasertib + Decitabine; first compound 0.04 µM) | relative viability (Tozasertib + Decitabine; first compound 0.1265 µM) | relative viability (Tozasertib + Navitoclax; first compound 0.004 µM) | relative viability (Tozasertib + Navitoclax; first compound 0.01265 µM) | relative viability (Tozasertib + Navitoclax; first compound 0.04 µM) | relative viability (Tozasertib + Navitoclax; first compound 0.1265 µM) | relative viability (Tozasertib + Olaparib; first compound 0.004 µM) | relative viability (Tozasertib + Olaparib; first compound 0.01265 µM) | relative viability (Tozasertib + Olaparib; first compound 0.04 µM) | relative viability (Tozasertib + Olaparib; first compound 0.1265 µM) | relative viability (Tozasertib + Crizotinib; first compound 0.004 µM) | relative viability (Tozasertib + Crizotinib; first compound 0.04 µM) | relative viability (Tozasertib + Crizotinib; first compound 0.1265 µM) | relative viability (Tozasertib + Luminespib; first compound 0.004 µM) | relative viability (Tozasertib + Luminespib; first compound 0.01265 µM) | relative viability (Tozasertib + Luminespib; first compound 0.04 µM) | relative viability (Tozasertib + Luminespib; first compound 0.1265 µM) | relative viability (Tozasertib + Crizotinib; first compound 0.01265 µM) |
| --- | --- | --- | --- | --- | --- | --- | --- | --- | --- | --- | --- | --- | --- | --- | --- | --- | --- | --- | --- | --- |
| NCI-H1734 | 0.501 | 0.51 | 0.561 | 0.401 | 0.851 | 0.761 | 0.834 | 0.504 | 0.734 | 0.577 | 0.66 | 0.374 | 0.703 | 0.67 | 0.258 | 0.223 | 0.184 | 0.2 | 0.167 |  |
| HCC-15 | 0.66 | 0.496 | 0.64 | 0.339 | 0.692 | 0.692 | 0.768 | 0.641 | 0.715 |  | 0.688 | 0.597 | 0.872 | 0.738 | 0.773 | 0.296 | 0.282 | 0.306 | 0.238 | 0.85 |
| NCI-H1437 | 0.614 | 0.49 | 0.584 | 0.359 | 1.05 | 0.974 | 1.09 | 0.87 | 0.66 | 0.58 | 0.595 | 0.541 | 0.929 | 0.721 | 0.922 | 1.19 | 1.1 | 1.09 | 1.03 | 0.839 |
| NCI-H1563 |  |  |  |  |  |  |  |  |  |  |  |  | 0.843 | 0.934 | 0.84 | 0.48 | 0.635 | 0.484 | 0.48 | 0.843 |
| NCI-H2085 | 0.578 | 0.508 | 0.538 | 0.485 | 1.14 | 1.12 | 1.13 | 0.816 | 0.82 | 0.752 | 0.782 | 0.711 | 0.953 | 0.667 | 0.597 | 0.473 | 0.428 | 0.442 | 0.457 | 0.959 |
| NCI-H2126 | 0.551 | 0.58 | 0.612 | 0.606 | 0.842 | 0.802 | 0.963 | 0.865 | 0.962 | 0.939 | 0.971 | 0.92 | 1.17 | 1.09 | 0.996 | 1 | 0.935 | 0.891 | 0.865 | 1.03 |
| SW 1573 | 0.351 | 0.463 | 0.544 | 0.176 | 1.1 | 1.06 | 1.15 | 0.816 | 0.479 | 0.452 | 0.456 | 0.208 | 0.782 | 0.762 | 0.273 | 0.25 | 0.239 | 0.139 | 0.228 | 0.706 |
| NCI-H1793 | 0.555 | 0.495 | 0.508 | 0.397 | 0.492 | 0.501 | 0.453 | 0.33 | 0.918 | 0.778 | 0.974 | 0.533 |  |  |  | 0.181 | 0.198 | 0.191 | 0.18 |  |
| HCC-366 | 0.32 | 0.314 | 0.314 | 0.169 | 1.09 | 0.945 | 1.17 | 0.752 | 0.333 | 0.333 | 0.312 | 0.127 |  | 0.257 | 0.039 |  |  |  |  | 0.472 |
| NCI-H358 | 0.246 | 0.196 | 0.228 | 0.0965 |  |  |  |  | 0.555 | 0.562 | 0.56 | 0.187 | 0.457 | 0.261 | 0.228 | 0.265 | 0.394 | 0.382 | 0.234 | 0.345 |
| ABC-1 | 0.989 | 1.03 | 0.539 | 0.44 |  |  |  |  | 0.832 | 0.704 | 0.394 | 0.613 | 1.21 | 0.565 | 0.249 | 0.521 | 0.638 | 0.402 | 0.686 | 0.992 |
| HCC-78 | 0.746 | 0.598 | 0.763 | 0.595 | 0.822 | 0.633 |  | 0.539 | 0.885 | 0.705 | 0.98 | 0.758 | 0.333 | 0.356 | 0.288 |  |  |  |  | 0.324 |
| CAL-12T |  |  |  |  | 1.33 | 1.14 | 1.31 | 1.08 |  | 0.741 | 0.769 | 0.55 | 0.823 | 0.454 | 0.325 | 0.288 | 0.405 | 0.58 | 0.368 | 0.635 |
| A549 | 0.27 | 0.266 | 0.282 | 0.199 | 1.26 | 1.29 | 1.14 | 0.179 | 0.2 | 0.324 | 0.313 | 0.13 | 0.839 | 0.393 | 0.0848 |  |  |  |  | 0.745 |
| NCI-H661 | 0.65 | 0.599 | 0.569 | 0.304 |  |  |  |  | 0.807 | 0.791 | 0.663 | 0.448 | 1.06 | 0.885 | 0.605 | 1.01 | 0.916 | 0.973 | 0.575 | 1.05 |
| SW 900 | 0.43 | 0.442 | 0.347 | 0.375 |  |  |  |  | 0.802 | 0.809 | 0.851 | 0.619 |  |  |  | 0.167 | 0.188 | 0.205 | 0.173 |  |
| NCI-H1703 |  |  |  |  | 1.35 | 1.14 | 1.26 | 0.366 | 0.492 | 0.391 | 0.476 | 0.45 | 1.58 | 0.318 | 0.24 |  |  |  |  | 0.848 |
| NCI-H2228 |  |  |  |  | 0.717 |  | 1.23 | 1.06 | 0.616 | 0.511 | 0.622 | 0.366 | 0.487 | 0.452 | 0.186 | 0.216 | 0.167 | 0.204 | 0.167 |  |
| NCI-H650 | 0.38 | 0.288 | 0.334 | 0.284 |  |  |  |  | 0.381 | 0.315 | 0.357 | 0.325 | 0.8 | 0.574 | 0.397 | 0.901 | 0.845 | 0.678 | 0.646 | 0.73 |

Source: the supplement of paper PMC10307832
